Experimental data: ChEMBL document CHEMBL1857833, “Screening and optimization of specific chemical series against human African Trypanosomiasis (HAT)”
In brackets after ≈: the same amount, converted by molar mass.

Assays:
[1] = DNDI: Cytotoxicity against L929 mouse fibroblasts, 72 hour.; assay type: toxicity, cell-based; conditions: mouse, L929 mouse fibroblasts
Trypanosoma brucei = experiment: DNDI: Inhibition of Human African Trypanosomiasis, SBRI 427, in vitro; assay type: functional, organism-based
[2] = Trypanosoma brucei, SBRI 427, read-out: IC50

Structure (SMILES)	IC50 (Trypanosoma brucei; [2]) [µg/mL]	IC50 (Trypanosoma brucei) [µg/mL]	IC50 at 72 h [1] [µg/mL]
COc1ccc(S(=O)(=O)Nc2ccccn2)cc1	> 5		> 10
COc1ccc(S(=O)(=O)Nc2ccccn2)cc1OC	> 5		> 10
COc1ccc(/C(=N/O)Nc2cccc(C)c2)cc1			> 10
CCc1cccc(NS(=O)(=O)c2ccc(OC)cc2)c1	> 5		1.88 (≈ 6.45 µM)
O/N=C1\COc2ccccc21	> 5		> 10
COc1ccc(CNC(c2nc(Cc3ccccc3)c(N3CCCCC3)o2)C2CCCCC2)cc1OC (stereo unspecified)	> 5		> 10
COc1cccc(C(NCc2ccc(C)cc2)c2nc(Cc3ccccc3)c(N3CCOCC3)o2)c1 (stereo unspecified)	> 5		> 10
COc1ccc(/C=N/OCc2c(F)c(F)c(F)c(F)c2F)cc1	> 5		> 10
CC(C)c1ccc(Oc2ncccc2/C(=N\O)NC2CCCCC2)cc1	0.09 (≈ 0.255 µM)		6.75 (≈ 19.1 µM)
O/N=C(\NC1CCCC1)c1cccnc1Oc1ccccc1F	18.2 (≈ 57.8 µM)		
Fc1c(F)c(F)c(CO/N=C/c2ccccc2-c2ccccc2)c(F)c1F	> 5		> 10
C(=N\Oc1ccccc1)/c1ccccc1-c1ccccc1	> 5		> 10
Cc1ccc(/C(=N/O)Nc2cccc(F)c2)c(Oc2c(F)cccc2F)n1	3.75 (≈ 10 µM)		> 10
CCC(C)C(NCc1cccc(C)c1)c1nc(-c2ccccc2)c(N2CCCCC2)o1 (stereo unspecified)	> 5		> 10
CCC(C)(C)N/C(=N\O)c1ccc(Oc2cccc3ccccc23)nc1	0.86 (≈ 2.46 µM)		
Cc1cc(C)cc(CN/C(=N\O)c2ccc(C)nc2OCc2ccccn2)c1	2.79 (≈ 7.41 µM)		
COc1ccc(/C(=N/O)Nc2cccc(C(C)C)c2)cc1	1.41 (≈ 4.96 µM)		5.81 (≈ 20.4 µM)
CCc1cccc(NS(=O)(=O)c2ccc(OC)c(OC)c2)c1	> 5		> 10
COc1ccc(CNC(CC(C)C)c2nc(Cc3ccccc3)c(N3CCCCC3)o2)cc1OC (stereo unspecified)	> 5		> 10
O/N=C(\NC1CCCC1)c1ccc(Oc2cccc3c2CCCC3)nc1	0.31 (≈ 0.882 µM)		
O/N=C(\NCC1CCCCC1)c1ccc(Oc2ccc(-n3ccnc3)cc2)nc1	1.43 (≈ 3.65 µM)		
O/N=C(\NCc1ccccc1)c1cccnc1Oc1ccc(F)cc1Cl	0.62 (≈ 1.67 µM)		

Structure (SMILES)	IC50 (Trypanosoma brucei; [2]) [µg/mL]	IC50 (Trypanosoma brucei) [µg/mL]	IC50 at 72 h [1] [µg/mL]
Cc1ccc(/C(=N/O)NC2CCCCC2)c(Oc2cc(Cl)ccc2Cl)n1	1.18 (≈ 2.99 µM)	2.27 (≈ 5.76 µM)	> 10
CCC(C)C(NCc1ccc(OC)c(OC)c1)c1nc(Cc2ccccc2)c(N2CCCCC2)o1 (stereo unspecified)	> 5		> 10
O/N=C(\NC1CCCCC1)c1cccnc1Oc1cc(Cl)ccc1Cl	0.57 (≈ 1.5 µM)		> 10
CCC(C)C(NCc1ccc(OC)c(OC)c1)c1nc(-c2ccccc2)c(N2CCCCC2)o1 (stereo unspecified)	> 5		> 10
Cc1ccc(CNC(c2nc(Cc3ccccc3)c(N3CCOCC3)o2)c2ccccc2F)cc1 (stereo unspecified)	> 5		> 10
Cc1ccc(CNC(c2ccccc2)c2nc(-c3ccccc3)c(N3CCCCC3)o2)cc1 (stereo unspecified)	> 5		> 10
CCc1cccc(N/C(=N\O)c2ccc(C)nc2Oc2cc(Cl)ccc2Cl)c1	3.96 (≈ 9.51 µM)		4.7 (≈ 11.3 µM)
O/N=C(\NCC1CCCCC1)c1cccnc1Oc1ccc(-n2cncn2)cc1	0.59 (≈ 1.5 µM)		
Cc1ccc(Oc2ccccc2/C(=N/O)NC2CCCCC2)cc1	0.27 (≈ 0.832 µM)		4.06 (≈ 12.5 µM)
COc1ccc(S(=O)(=O)NC2CCCCC2)cc1	> 5		> 10
COc1ccc(S(=O)(=O)NC2CCCCC2)cc1OC	> 5		> 10
CCC(C)C(NCC(C)C)c1nc(Cc2ccccc2)c(N2CCCCC2)o1 (stereo unspecified)	> 5		> 10
CSc1ccccc1Oc1ncccc1/C(=N/O)NC1CCCC1	2.99 (≈ 8.71 µM)		
CC1CCc2ccccc2N1/C(=N\O)c1cccnc1Oc1ccc(-n2cncn2)cc1 (stereo unspecified)	0.73 (≈ 1.71 µM)		
Cc1ccc(CNC(c2cccc(C#N)c2)c2nc(Cc3ccccc3)c(N3CCOCC3)o2)cc1 (stereo unspecified)	> 5		> 10
COc1ccccc1Oc1ncccc1/C(N)=N\O	> 5		> 10
O/N=C(\Nc1cccc(F)c1)c1cccnc1Oc1cc(Cl)ccc1Cl	> 5		7.69 (≈ 19.6 µM)
Cc1ccc(Oc2ccc(/C(=N/O)NC3CCCC3)cn2)c(C)c1	21.8 (≈ 66.9 µM)		
O/N=C(/c1cccnc1Oc1ccc(F)cc1Cl)N1CCCc2ccccc21	0.54 (≈ 1.36 µM)		
COc1ccc(/C(=N/O)Nc2cccc(C(C)(C)C)c2)cc1			3.91 (≈ 13.1 µM)
CCC(C)C(NCc1ccccc1OC)c1nc(Cc2ccccc2)c(N2CCCCC2)o1 (stereo unspecified)	> 5		> 10
Cc1cc(C)cc(Oc2nc(C)ccc2/C(=N/O)N2c3ccccc3CCC2C)c1 (stereo unspecified)	1.6 (≈ 3.98 µM)		

The next lines start with results.

IC50 (Trypanosoma brucei; [2]) [µg/mL]	IC50 (Trypanosoma brucei) [µg/mL]	Structure (SMILES)	IC50 at 72 h [1] [µg/mL]
6.96 (≈ 21.4 µM)		Cc1ccc(Oc2nc(C)ccc2/C(=N/O)NC2CCCC2)cc1	
0.75 (≈ 2.62 µM)		CCCCNCc1coc(-c2ccc(CCCC)cc2)n1	2.5 (≈ 8.73 µM)
0.63 (≈ 2.1 µM)		CCCCc1ccc(-c2nc(CNC(CC)CC)co2)cc1	1.83 (≈ 6.09 µM)
2.01 (≈ 5.65 µM)	1.48 (≈ 4.16 µM)	CCCCc1ccc(-c2nc(CNCCCN3CCCCC3)co2)cc1	6.2 (≈ 17.4 µM)
> 5		CCCCc1ccc(-c2nc(CN3CCN(c4ccccc4)CC3)co2)cc1	> 10
> 5		CCCCc1ccc(-c2nc(CC)co2)cc1	6.2 (≈ 27 µM)
1.76 (≈ 5.56 µM)		CCCC(CCC)NCc1coc(-c2ccccc2OCC)n1	
1.36 (≈ 4.17 µM)		C[C@H]1C(NCc2coc(-c3ccc(O)cc3)n2)C[C@@H]2C[C@H]1C2(C)C (stereo partly specified)	
> 5		CCCCc1ccc(-c2nc(C)c(C)o2)cc1	5.21 (≈ 22.7 µM)
40.8 (≈ 126 µM)		CCc1ccc(Oc2ccc(/C(=N/O)NC3CCCC3)cn2)cc1	
1.6 (≈ 4.69 µM)	0.89 (≈ 2.61 µM)	CCCCc1ccc(-c2nc(CNCCCN3CCCC3)co2)cc1	6.03 (≈ 17.7 µM)
1.56 (≈ 4.75 µM)		C[C@H]1C(NCc2coc(-c3cccc(F)c3)n2)C[C@@H]2C[C@H]1C2(C)C (stereo partly specified)	
0.41 (≈ 1.31 µM)		CCCCc1ccc(-c2nc(CNC3CCCCC3)co2)cc1	1.44 (≈ 4.61 µM)
> 5		CCCCCCCCCCOc1ccc(-c2nc(CN[C@@H]3C[C@@H]4C[C@H]([C@H]3C)C4(C)C)co2)cc1	7.22 (≈ 15.5 µM)
1 (≈ 3.33 µM)		CCCCCC(C)NCc1coc(-c2ccc(CC)cc2)n1 (stereo unspecified)	2.61 (≈ 8.69 µM)
1.18 (≈ 3.59 µM)		C[C@@H]1C(NCc2coc(-c3cccc(F)c3)n2)C[C@H]2C[C@@H]1C2(C)C (stereo partly specified)	
1.3 (≈ 4.57 µM)		CCCCc1ccc(-c2nc(CNC3CCC3)co2)cc1	3.51 (≈ 12.3 µM)
0.37 (≈ 1.18 µM)		CCCCCCNCc1coc(-c2ccc(CCCC)cc2)n1	1.15 (≈ 3.66 µM)
0.75 (≈ 2.75 µM)		CCCCc1ccc(-c2nc(CNCCC)co2)cc1	4.29 (≈ 15.7 µM)
> 5		CCCCc1ccc(-c2nc(-c3cc(-c4ccccc4)no3)co2)cc1	> 10
> 5		CCC(C)C(NCc1ccc(C)cc1)c1nc(Cc2ccccc2)c(N2CCCCC2)o1 (stereo unspecified)	> 10
1.35 (≈ 3.15 µM)		CCCCCCCCCCOc1ccc(-c2nc(CNC(C)CCCCC)co2)cc1 (stereo unspecified)	2.9 (≈ 6.77 µM)
0.51 (≈ 1.7 µM)		CCCCCNCc1coc(-c2ccc(CCCC)cc2)n1	1.64 (≈ 5.46 µM)
0.83 (≈ 2.78 µM)		CCCCc1ccc(-c2nc(CNC3CCCC3)co2)cc1	2.52 (≈ 8.44 µM)
0.61 (≈ 2.03 µM)		CCCCc1ccc(-c2nc(CNC(C)CCC)co2)cc1 (stereo unspecified)	2.03 (≈ 6.76 µM)

IC50 (Trypanosoma brucei; [2]) [µg/mL]	IC50 (Trypanosoma brucei) [µg/mL]	Structure (SMILES)	IC50 at 72 h [1] [µg/mL]
3.05 (≈ 11.3 µM)		CCCCc1ccc(-c2nc(CNC3CC3)co2)cc1	7.55 (≈ 27.9 µM)
2.27 (≈ 7.17 µM)		C[C@H]1C(NCc2coc(-c3cccs3)n2)C[C@@H]2C[C@H]1C2(C)C (stereo partly specified)	
> 5		CCCCc1ccc(-c2nc(CNCc3ccncc3)co2)cc1	> 10
> 5		CCCCc1ccc(-c2nc(CNCc3ccccn3)co2)cc1	9.31 (≈ 29 µM)
> 5		CCCCc1ccc(-c2nc(C(=O)OCC)co2)cc1	> 10
> 5		CCCCCCCCOC(=O)Cc1coc(-c2ccc(CCCC)cc2)n1	> 10
0.87 (≈ 2.6 µM)		CCCCc1ccc(-c2nc(CNC(C)c3ccccc3)co2)cc1 (stereo unspecified)	3.33 (≈ 9.96 µM)
> 5		CCCCc1ccc(-c2nc(C)c(C(=O)OC)o2)cc1	> 10
0.69 (≈ 2.06 µM)		CCCCc1ccc(-c2nc(CNCCc3ccccc3)co2)cc1	2.3 (≈ 6.88 µM)
> 5		CCC(C)C(NCc1ccc(C)cc1)c1nc(-c2ccccc2)c(N2CCCCC2)o1 (stereo unspecified)	> 10
> 5		CCCCc1ccc(-c2nc(C)c(C(C)=O)o2)cc1	> 10
0.57 (≈ 1.4 µM)		C[C@@H]1[C@H]2C[C@@H](C[C@H]1NCc1coc(-c3ccc(OC4CCCCC4)cc3)n1)C2(C)C	1.59 (≈ 3.89 µM)
2.98 (≈ 8.91 µM)		CCCCc1ccc(-c2nc(CN[C@H](C)c3ccccc3)co2)cc1	3.32 (≈ 9.93 µM)
2.12 (≈ 7.01 µM)		CCOc1ccccc1-c1nc(CNC(C)C(C)(C)C)co1 (stereo unspecified)	
1.32 (≈ 4.12 µM)		CCCCc1ccc(-c2nc(CNCc3ccccc3)co2)cc1	3.29 (≈ 10.3 µM)
> 5		CCCCc1ccc(-c2nc(-c3ccccc3)c(-c3ccccc3)o2)cc1	> 10
> 5		CCCCc1ccc(-c2nc(-c3ccccc3)c(C)o2)cc1	> 10
3.05 (≈ 9.12 µM)		CCCCc1ccc(-c2nc(CNCc3ccc(C)cc3)co2)cc1	2.63 (≈ 7.86 µM)
> 5		CCCCc1ccc(-c2nc(-c3ccc(OC)cc3)co2)cc1	> 10
> 5		CCCCc1ccc(-c2nc(-c3ccc4ccccc4c3)co2)cc1	> 10
4.99 (≈ 15.7 µM)		CCCCCC(C)NCc1coc(-c2ccc([N+](=O)[O-])cc2)n1 (stereo unspecified)	7.08 (≈ 22.3 µM)
> 5		CCCCc1ccc(-c2nc(CNCc3ccc(Cl)cc3)co2)cc1	7.38 (≈ 20.8 µM)
> 5		CCCCc1ccc(-c2nc(COCC)co2)cc1	> 10
1.94 (≈ 5.91 µM)		CCOc1ccccc1-c1nc(CNC(C)C2CCCCC2)co1 (stereo unspecified)	
